SMILES strings stand for the structures. Read-outs that look alike come from different tables or passages of the source.

Experiment [1] addresses T1, recombinant human Lp-PLA2 (Homo sapiens, UniProt Q13093).
T1 sequence (Q13093 22-441): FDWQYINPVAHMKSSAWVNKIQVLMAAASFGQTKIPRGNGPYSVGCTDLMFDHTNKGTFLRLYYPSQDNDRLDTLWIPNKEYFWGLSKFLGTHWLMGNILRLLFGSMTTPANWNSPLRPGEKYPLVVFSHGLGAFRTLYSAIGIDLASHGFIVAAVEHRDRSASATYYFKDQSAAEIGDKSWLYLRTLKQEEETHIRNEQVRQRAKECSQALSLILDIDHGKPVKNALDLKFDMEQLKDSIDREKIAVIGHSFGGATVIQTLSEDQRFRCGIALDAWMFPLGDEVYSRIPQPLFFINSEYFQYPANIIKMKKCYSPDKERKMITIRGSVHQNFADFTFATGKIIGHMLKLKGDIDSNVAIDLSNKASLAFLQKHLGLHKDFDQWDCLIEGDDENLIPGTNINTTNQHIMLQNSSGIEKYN
Kind of experiment: Recombinant human Lp-PLA2 assay (rhLp-PLA2, PED6 assay). In kind it is biochemical. The procedure, abridged: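 Enzyme (4 nM or 110 pM, as stated for the 5 μL addition) preincubated 30 min with compound in 50 mM HEPES pH 7.4, 150 mM NaCl, 1 mM CHAPS, then PED6 substrate (4 or 5 μM in the addition) added. Fluorescence (ex 480/em 540) read after 20 min, room temperature; pIC50 from curve fitting.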

Experiment [2] addresses T2, Lp-PLA2 in human plasma (Homo sapiens, UniProt Q13093).
T2 construct: from tissue; host or cells: pooled human plasma
T2 sequence (Q13093 22-441): T1 sequence (Q13093 22-441)
In words: Lp-PLA2 human plasma assay (Thio-PAF assay). The format is biochemical. To be noted: pooled human plasma; read-out: pIC50 values in the thio-PAF assay (converted). The procedure, abridged: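 Pooled human plasma preincubated 30 min with compound, then 2-thio-PAF substrate added with CPM and NEM in 50 mM HEPES pH 7.4, 150 mM NaCl, 1 mM CHAPS. Quenched with TFA after 2 min, incubated 40 min at room temperature, and read by fluorescence at ex 380/em 485 nm. Values given as pIC50.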

For experiment [3], the system named is experimental autoimmune encephalomyelitis (EAE). In words: Rat experimental autoimmune encephalomyelitis (EAE) model, preventive treatment. The format is in vivo. How it is done:
A further study was carried out to study the impact of Lp-PLA2 inhibitors on modulating M1/M2 imbalance. In this study, rats were induced to develop experimental autoimmune encephalomyelitis (EAE) by immunization with myelin basic protein (MBP) antigen and treated with a known Lp-PLA2 inhibitor: 5-((9-Methoxy-4-oxo-6,7-dihydro-4H-pyrimido[6,1-a]isoquinolin-2-yl)oxy)-2-(3-(trifluoromethyl)phenoxy)benzonitrile (See PCT application no. PCT/CN2011/001597). In this preventive treatment model, the compound was administered at day 0 (day of immunization) and continued to administer until day 22. The study lasted for 25 days. Rats were subsequently monitored for symptoms of EAE. Rats were immunized with MBP to develop EAE and symptoms were monitored daily. Plasma Lp-PLA2 activity, OxLDL, and LysoPC concentration were determined at different time points through the course of EAE.

Experiment [4] relates to proinflammatory (M1) and anti-inflammatory (M2) markers. Kind of experiment: Ex vivo analysis of M1 and M2 markers in macrophages of EAE rats by realtime PCR. To be noted: splenic macrophages day 13 post MBP-immunization and CNS infiltrating macrophages. Further details: species or system rat. How it is done: Ex vivo analysis of proinflammatory (M1) and anti-inflammatory (M2) markers in control and compound treated EAE rats. Splenic macrophages were harvested at day 13 post MBP-immunization and assayed for expression of a variety of markers by realtime PCR. CNS infiltrating cells were harvested and macrophages were analyzed for expression of M1 and M2 markers by realtime PCR.

The mark [5] stands for this setting: read-out: pIC50 values in the recombinant human Lp-PLA2 assay (converted).
[6] abbreviates: read-out: rhLp-PLA2 (PED6 assay) (pIC50) (converted).

Turning to `C[C@H]1CCn2c(cc(OCc3cc(F)c(Oc4ccc(Cl)cc4)c(F)c3)nc2=O)N1C` [E95, (S)-8-((4-(4-chlorophenoxy)-3,5-difluorobenzyl)oxy)-1,2-dimethyl-3,4-dihydro-1H-pyrimido[1,6-a]pyrimidin-6(2H)-one], the IC50 is ≤ 1 nM in experiment [1] (setting [5]) and ≤ 100 nM in experiment [2].
For the compound `C[C@@H]1CCn2c(cc(OCc3cc(F)c(F)c(F)c3)nc2=O)N1` [E29, (R)-2-methyl-8-((3,4,5-trifluorobenzyl)oxy)-3,4-dihydro-1H-pyrimido[1,6-a]pyrimidin-6(2H)-one], the IC50 was 1.26 nM in experiment [1] (setting [6]) and ≤ 100 nM in experiment [2].
In the case of `C[C@H]1CCn2c(cc(OCc3cc(F)c(Oc4ccc(F)c(Cl)c4)c(F)c3)nc2=O)N1C` [E106, (S)-8-((4-(3-chloro-4-fluorophenoxy)-3,5-difluorobenzyl)oxy)-1,2-dimethyl-3,4-dihydro-1H-pyrimido[1,6-a]pyrimidin-6(2H)-one], the IC50 in experiment [1] (setting [5]) is ≤ 1 nM; in experiment [2], ≤ 100 nM.
For the compound `C[C@@H]1CCn2c(cc(OCc3ccc(Oc4ccnc(C(F)(F)F)c4)c(F)c3)nc2=O)N1C` [E147, (R)-8-((3-fluoro-4-((2-(trifluoromethyl)pyridin-4-yl)oxy)benzyl)oxy)-1,2-dimethyl-3,4-dihydro-1H-pyrimido[1,6-a]pyrimidin-6(2H)-one], the IC50 in experiment [1] (setting [5]) is ≤ 1 nM; in experiment [2] it was ≤ 10 nM.
For `C[C@H]1CCn2c(cc(OCc3ccc(Oc4cccc(C(F)(F)F)c4)c(F)c3)nc2=O)N1C` [E91, (S)-8-((3-fluoro-4-(3-(trifluoromethyl)phenoxy)benzyl)oxy)-1,2-dimethyl-3,4-dihydro-1H-pyrimido[1,6-a]pyrimidin-6(2H)-one] the same measures were ≤ 1 nM and ≤ 10 nM.
`C[C@@H]1CCn2c(cc(OCc3ccc(Oc4ccc(F)c(Cl)c4)c(C#N)c3)nc2=O)N1C` [E79, (R)-2-(3-chloro-4-fluorophenoxy)-5-(((1,2-dimethyl-6-oxo-2,3,4,6-tetrahydro-1H-pyrimido[1,6-a]pyrimidin-8-yl)oxy)methyl)benzonitrile]: the IC50 in experiment [1] (setting [5]) is ≤ 1 nM; in experiment [2] it was ≤ 100 nM.
For the compound `COc1ccc2c(c1)CCn1c-2cc(Oc2ccc(Oc3cccc(C(F)(F)F)c3)c(C#N)c2)nc1=O` [5-((9-Methoxy-4-oxo-6,7-dihydro-4H-pyrimido[6,1-a]isoquinolin-2-yl)oxy)-2-(3-(trifluoromethyl)phenoxy)benzonitrile], in experiment [3] (rat EAE plasma), the “Lp-PLA2 activity in rat EAE plasma” value was “decreased” and the “LysoPC levels in rat EAE plasma” value was “decreased”. Also, the clinical disease entry in experiment [3] (rat EAE, administered day 0 until day 22) is reported as “reduction in clinical disease”. For the same compound, in experiment [4], the M1 markers result is “decrease” and the M2 markers result is “increase”.
Regarding `C[C@@H]1CCn2c(cc(OCc3ccc(Oc4cnc(C(F)(F)F)nc4)c(F)c3)nc2=O)N1C` [E110, (R)-8-((3-fluoro-4-((2-(trifluoromethyl)pyrimidin-5-yl)oxy)benzyl)oxy)-1,2-dimethyl-3,4-dihydro-1H-pyrimido[1,6-a]pyrimidin-6(2H)-one], the IC50 in experiment [1] (setting [5]) was ≤ 1 nM; in experiment [1] (setting [6]), 0.631 nM; in experiment [2] it was ≤ 100 nM.
Take `CC1CCn2c(cc(OCc3ccc(Oc4ccc(F)c(F)c4)c(F)c3)nc2=O)N1` (stereo not shown) [E3, 8-((4-(3,4-difluorophenoxy)-3-fluorobenzyl)oxy)-2-methyl-3,4-dihydro-1H-pyrimido[1,6-a]pyrimidin-6(2H)-one]: the values for the IC50 in experiment [1] (setting [5]) and in experiment [2] were ≤ 1 nM and ≤ 100 nM, respectively.
For `C[C@@H]1CCn2c(cc(OCc3ccc(Oc4ccc(F)c(C(F)(F)F)c4)cc3)nc2=O)N1C` [E87, (R)-8-((4-(4-fluoro-3-(trifluoromethyl)phenoxy)benzyl)oxy)-1,2-dimethyl-3,4-dihydro-1H-pyrimido[1,6-a]pyrimidin-6(2H)-one], the IC50 in experiment [1] (setting [5]) is ≤ 1 nM; in experiment [2], ≤ 10 nM.
For `C[C@H]1CCn2c(cc(OCc3cc(F)c(Oc4cnc(C(F)(F)F)nc4)c(F)c3)nc2=O)N1C` [E104, (S)-8-((3,5-difluoro-4-((2-(trifluoromethyl)pyrimidin-5-yl)oxy)benzyl)oxy)-1,2-dimethyl-3,4-dihydro-1H-pyrimido[1,6-a]pyrimidin-6(2H)-one] the same measures were ≤ 1 nM and ≤ 100 nM.
The like results for `C[C@@H]1CCn2c(cc(OCc3cc(F)c(Oc4ccc(F)cc4)c(F)c3)nc2=O)N1C` [E122, (R)-8-((3,5-difluoro-4-(4-fluorophenoxy)benzyl)oxy)-1,2-dimethyl-3,4-dihydro-1H-pyrimido[1,6-a]pyrimidin-6(2H)-one] were, in that order, ≤ 1 nM and ≤ 100 nM.
For `C[C@H]1CCn2c(cc(OCc3ccc(Oc4ccc(F)c(Cl)c4)c(C#N)c3)nc2=O)N1C` [E85, (S)-2-(3-chloro-4-fluorophenoxy)-5-(((1,2-dimethyl-6-oxo-2,3,4,6-tetrahydro-1H-pyrimido[1,6-a]pyrimidin-8-yl)oxy)methyl)benzonitrile] the same measures were ≤ 1 nM and ≤ 10 nM.
For `C[C@H]1CCn2c(cc(OCc3ccc(F)c(F)c3)nc2=O)N1C` [E37, (S)-8-((3,4-difluorobenzyl)oxy)-1,2-dimethyl-3,4-dihydro-1H-pyrimido[1,6-a]pyrimidin-6(2H)-one], the IC50 in experiment [1] (setting [5]) was ≤ 1 nM; in experiment [2], ≤ 100 nM.
For `C[C@@H]1CCn2c(cc(OCc3ccc(F)c(F)c3)nc2=O)N1` [E28, (R)-8-((3,4-difluorobenzyl)oxy)-2-methyl-3,4-dihydro-1H-pyrimido[1,6-a]pyrimidin-6(2H)-one] the same measures were ≤ 1 nM and ≤ 100 nM.
Turning to `C[C@H]1CCn2c(cc(OCc3cc(F)c(Oc4ccc(F)cc4)c(F)c3)nc2=O)N1C` [E94, (S)-8-((3,5-difluoro-4-(4-fluorophenoxy)benzyl)oxy)-1,2-dimethyl-3,4-dihydro-1H-pyrimido[1,6-a]pyrimidin-6(2H)-one], the IC50 is ≤ 1 nM in experiment [1] (setting [5]) and ≤ 100 nM in experiment [2].
The like results for `CN1c2cc(OCc3cc(F)c(F)c(F)c3)nc(=O)n2CCC1(C)C` [E54, 1,2,2-trimethyl-8-((3,4,5-trifluorobenzyl)oxy)-3,4-dihydro-1H-pyrimido[1,6-a]pyrimidin-6(2H)-one] were, in that order, ≤ 1 nM and ≤ 100 nM.
For `C[C@H]1CCn2c(cc(OCc3ccc(Oc4ccc(F)c(C(F)(F)F)c4)cc3)nc2=O)N1C` [E84, (S)-8-((4-(4-fluoro-3-(trifluoromethyl)phenoxy)benzyl)oxy)-1,2-dimethyl-3,4-dihydro-1H-pyrimido[1,6-a]pyrimidin-6(2H)-one] the same measures were ≤ 1 nM and ≤ 10 nM.

These data come from patent US20150344485A1, “BICYCLIC PYRIMIDONE COMPOUNDS AS INHIBITORS OF LP-PLA2” (GLAXOSMITHKLINE INTELLECTUAL PROPERTY DEVELOPMENT LIMITED, priority 2013, published 2015).
